Assay [1] concerns the target Serine/threonine-protein kinase/endoribonuclease IRE1 (Homo sapiens) (UniProt O75460). Put plainly: Inhibition of IRE1 Lys2 labeling site in human Huh-7 cell lysate at 1 uM by KiNativ Profiling analysis relative to control. The format is subcellular.
In assay [2] the target is Mitogen-activated protein kinase kinase kinase kinase 4 (Homo sapiens, UniProt O95819). The experiment in a line: Inhibition of ZC1/HGK Lys1 labeling site in human Huh-7 cell lysate at 1 uM by KiNativ Profiling analysis relative to control. It counts as subcellular.
Assay [3] has as its system Mast/stem cell growth factor receptor Kit (Homo sapiens), P10721 [V559D,T670I]. Put plainly: Inhibition of KIT V559D/T670I mutant (unknown origin) at 1 uM by Ambit Kinomescan binding assay relative to control; values are per cent of control.
Assay [4] deals with T1, Dual specificity mitogen-activated protein kinase kinase 3 (Homo sapiens) (UniProt P46734).
T1 sequence (whole entry): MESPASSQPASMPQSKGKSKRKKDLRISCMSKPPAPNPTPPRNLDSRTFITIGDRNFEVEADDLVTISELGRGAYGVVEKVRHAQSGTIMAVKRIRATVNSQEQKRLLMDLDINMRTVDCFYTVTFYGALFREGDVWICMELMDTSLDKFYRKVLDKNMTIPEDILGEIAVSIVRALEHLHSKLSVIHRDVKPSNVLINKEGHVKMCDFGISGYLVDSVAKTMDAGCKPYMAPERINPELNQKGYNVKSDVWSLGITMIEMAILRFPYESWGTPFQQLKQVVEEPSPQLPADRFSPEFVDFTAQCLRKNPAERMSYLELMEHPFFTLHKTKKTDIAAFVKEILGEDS
The experiment in a line: Inhibition of MAP2K3 Lys2 labeling site in human A-375 cells at 0.5 uM by KiNativ Profiling analysis relative to control. It counts as cell-based.

In assay [5] the test system is Tyrosine-protein kinase ABL1 (Homo sapiens), P00519 [M351T]. Put plainly: Inhibition of phosphorylated ABL1 M351T mutant (unknown origin) at 1 uM by Ambit Kinomescan binding assay relative to control; values are per cent of control.
For assay [6], the target named is Mitogen-activated protein kinase kinase kinase 13 (Homo sapiens) (UniProt O43283). Put plainly: Inhibition of LZK (unknown origin) at 1 uM by Ambit Kinomescan binding assay relative to control.
In assay [7] the target is Non-receptor tyrosine-protein kinase TYK2 (Homo sapiens) (UniProt P29597). Put plainly: Inhibition of TYK2 JH1catalytic domain (unknown origin) at 1 uM by Ambit Kinomescan binding assay relative to control.
Assay [8] concerns the target Serine/threonine-protein kinase SMG1 (Homo sapiens) (UniProt Q96Q15). The experiment in a line: Inhibition of SMG1 ATP labeling site harbouring SYPYLFKGLEDLHLDER in human A-375 cells at 5 uM by KiNativ Profiling analysis relative to control. The format is cell-based.
For assay [9], the target named is T2, Serine/threonine-protein kinase tousled-like 1 (Homo sapiens) (UniProt Q9UKI8).
T2 sequence (whole entry): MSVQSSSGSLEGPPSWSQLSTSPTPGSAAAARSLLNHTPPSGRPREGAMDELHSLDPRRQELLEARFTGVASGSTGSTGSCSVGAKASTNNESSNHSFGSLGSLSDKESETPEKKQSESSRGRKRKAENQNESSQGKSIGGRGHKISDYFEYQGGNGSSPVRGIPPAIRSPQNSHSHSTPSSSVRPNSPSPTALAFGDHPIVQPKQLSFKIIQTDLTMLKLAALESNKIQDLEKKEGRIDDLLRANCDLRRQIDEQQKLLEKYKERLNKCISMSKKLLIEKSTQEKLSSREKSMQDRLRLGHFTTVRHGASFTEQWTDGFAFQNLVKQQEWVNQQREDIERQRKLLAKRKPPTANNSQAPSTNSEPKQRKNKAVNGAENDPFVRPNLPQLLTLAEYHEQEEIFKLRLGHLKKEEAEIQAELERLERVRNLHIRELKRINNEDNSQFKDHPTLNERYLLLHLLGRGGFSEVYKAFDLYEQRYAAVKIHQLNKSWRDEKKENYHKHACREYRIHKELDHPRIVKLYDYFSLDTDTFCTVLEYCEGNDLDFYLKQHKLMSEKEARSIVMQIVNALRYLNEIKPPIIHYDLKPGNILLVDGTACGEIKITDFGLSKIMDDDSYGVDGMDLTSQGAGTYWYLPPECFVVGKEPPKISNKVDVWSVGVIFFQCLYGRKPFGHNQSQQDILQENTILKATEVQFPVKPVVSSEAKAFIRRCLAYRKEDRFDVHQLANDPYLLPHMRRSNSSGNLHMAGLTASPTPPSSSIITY
Put plainly: Inhibition of TLK1 (unknown origin) at 1 uM by Ambit Kinomescan binding assay relative to control.

Assay [10] has as its target Activin receptor type-1B (Homo sapiens) (UniProt P36896). Put plainly: Inhibition of ACVR1B (unknown origin) at 10 uM by Ambit Kinomescan binding assay.
Assay [11] addresses Dual specificity mitogen-activated protein kinase kinase; MEK1/2 (Homo sapiens) (UniProt P36507+Q02750). The experiment in a line: Inhibition of MAP2K1/2 K2 labeling site in human Huh-7 cells at 10 uM by KiNativ Profiling analysis relative to control. The format is cell-based.
The target in assay [12] is Serine/threonine-protein kinase Aurora (Homo sapiens) (UniProt Q96GD4+Q9UQB9+O14965). Put plainly: Inhibition of AurA/B/C ATP labeling site in human Huh-7 cells at 10 uM by KiNativ Profiling analysis relative to control. The format is cell-based.
The target of assay [13] is T3, Inhibitor of nuclear factor kappa-B kinase subunit epsilon (Homo sapiens) (UniProt Q14164).
T3 sequence (whole entry): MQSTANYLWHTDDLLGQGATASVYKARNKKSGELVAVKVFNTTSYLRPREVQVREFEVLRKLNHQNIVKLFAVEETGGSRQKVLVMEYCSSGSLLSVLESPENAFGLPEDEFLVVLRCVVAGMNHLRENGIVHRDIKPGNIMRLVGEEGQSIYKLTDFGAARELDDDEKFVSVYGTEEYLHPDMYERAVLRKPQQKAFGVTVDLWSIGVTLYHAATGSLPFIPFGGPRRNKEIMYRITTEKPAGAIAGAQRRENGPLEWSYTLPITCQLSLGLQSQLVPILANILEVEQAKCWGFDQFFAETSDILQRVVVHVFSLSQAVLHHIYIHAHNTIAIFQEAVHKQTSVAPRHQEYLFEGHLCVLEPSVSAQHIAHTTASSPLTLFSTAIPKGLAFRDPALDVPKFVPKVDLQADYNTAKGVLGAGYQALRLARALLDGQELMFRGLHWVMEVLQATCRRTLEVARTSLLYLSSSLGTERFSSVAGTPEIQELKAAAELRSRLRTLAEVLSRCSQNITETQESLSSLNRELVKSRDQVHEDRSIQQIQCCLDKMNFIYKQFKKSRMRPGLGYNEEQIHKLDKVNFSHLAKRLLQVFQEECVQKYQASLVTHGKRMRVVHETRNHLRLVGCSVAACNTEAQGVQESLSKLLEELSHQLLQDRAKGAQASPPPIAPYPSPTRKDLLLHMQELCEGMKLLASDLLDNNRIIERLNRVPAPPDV
Put plainly: Inhibition of IKK-epsilon (unknown origin) at 10 uM by Ambit Kinomescan binding assay.

Molecules are shown by their SMILES. The source made the active and inactive calls. No cut-off for these calls is given here.

Dual specificity mitogen-activated protein kinase kinase; MEK1/2 (Homo sapiens), sequence (P36507 whole entry, looked up): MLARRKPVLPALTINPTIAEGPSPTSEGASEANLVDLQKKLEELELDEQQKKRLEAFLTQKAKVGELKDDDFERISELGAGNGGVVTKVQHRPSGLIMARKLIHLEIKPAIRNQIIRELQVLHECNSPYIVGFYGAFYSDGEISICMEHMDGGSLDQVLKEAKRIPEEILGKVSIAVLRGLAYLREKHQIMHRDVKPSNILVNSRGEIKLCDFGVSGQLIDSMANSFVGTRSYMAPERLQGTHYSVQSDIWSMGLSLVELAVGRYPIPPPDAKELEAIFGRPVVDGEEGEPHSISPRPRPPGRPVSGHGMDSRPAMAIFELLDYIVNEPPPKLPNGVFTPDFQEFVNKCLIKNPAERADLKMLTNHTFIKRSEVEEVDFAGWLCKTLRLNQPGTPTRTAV
Dual specificity mitogen-activated protein kinase kinase; MEK1/2 (Homo sapiens), sequence (Q02750 whole entry, looked up): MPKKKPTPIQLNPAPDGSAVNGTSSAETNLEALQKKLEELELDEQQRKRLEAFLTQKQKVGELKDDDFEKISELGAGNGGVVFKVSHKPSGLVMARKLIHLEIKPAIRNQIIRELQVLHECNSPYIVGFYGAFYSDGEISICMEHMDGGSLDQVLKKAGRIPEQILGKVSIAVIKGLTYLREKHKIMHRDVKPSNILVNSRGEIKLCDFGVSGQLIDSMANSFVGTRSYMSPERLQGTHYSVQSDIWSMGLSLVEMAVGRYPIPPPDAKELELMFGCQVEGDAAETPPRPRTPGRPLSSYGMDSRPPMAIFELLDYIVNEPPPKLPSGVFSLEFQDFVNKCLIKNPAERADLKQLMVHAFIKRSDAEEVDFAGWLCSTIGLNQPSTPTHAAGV
Mitogen-activated protein kinase kinase kinase kinase 4, sequence (O95819 2-1239 limits assumed): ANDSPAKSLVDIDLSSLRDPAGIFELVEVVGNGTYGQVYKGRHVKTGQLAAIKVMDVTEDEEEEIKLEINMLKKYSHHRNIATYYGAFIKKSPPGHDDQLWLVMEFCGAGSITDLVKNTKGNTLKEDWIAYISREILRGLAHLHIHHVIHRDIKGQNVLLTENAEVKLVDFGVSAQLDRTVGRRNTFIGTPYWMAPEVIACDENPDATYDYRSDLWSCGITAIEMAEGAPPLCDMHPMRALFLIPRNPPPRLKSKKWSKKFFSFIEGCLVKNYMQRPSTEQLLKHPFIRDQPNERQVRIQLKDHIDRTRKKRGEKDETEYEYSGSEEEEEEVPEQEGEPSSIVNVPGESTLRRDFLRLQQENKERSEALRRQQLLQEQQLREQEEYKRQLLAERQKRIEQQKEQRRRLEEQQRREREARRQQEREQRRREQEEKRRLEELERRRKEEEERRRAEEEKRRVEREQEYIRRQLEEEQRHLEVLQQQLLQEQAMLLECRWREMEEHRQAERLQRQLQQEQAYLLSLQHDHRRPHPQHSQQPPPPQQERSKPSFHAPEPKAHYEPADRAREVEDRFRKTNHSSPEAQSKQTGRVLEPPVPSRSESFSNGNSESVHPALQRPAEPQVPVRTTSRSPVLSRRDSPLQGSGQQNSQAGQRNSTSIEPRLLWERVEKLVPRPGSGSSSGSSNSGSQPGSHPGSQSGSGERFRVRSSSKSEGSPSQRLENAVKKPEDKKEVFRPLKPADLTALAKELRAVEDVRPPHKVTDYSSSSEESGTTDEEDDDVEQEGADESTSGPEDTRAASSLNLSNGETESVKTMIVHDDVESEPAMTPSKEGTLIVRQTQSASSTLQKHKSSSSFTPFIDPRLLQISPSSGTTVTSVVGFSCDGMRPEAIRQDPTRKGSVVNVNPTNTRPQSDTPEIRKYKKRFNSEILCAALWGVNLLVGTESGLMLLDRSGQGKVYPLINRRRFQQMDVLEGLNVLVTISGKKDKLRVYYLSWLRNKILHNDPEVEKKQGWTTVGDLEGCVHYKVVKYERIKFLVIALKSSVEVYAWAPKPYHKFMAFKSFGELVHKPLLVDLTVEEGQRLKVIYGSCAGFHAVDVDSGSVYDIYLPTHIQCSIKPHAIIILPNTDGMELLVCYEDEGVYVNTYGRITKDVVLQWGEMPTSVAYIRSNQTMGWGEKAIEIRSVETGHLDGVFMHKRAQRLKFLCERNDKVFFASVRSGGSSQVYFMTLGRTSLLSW
Serine/threonine-protein kinase/endoribonuclease IRE1 (Homo sapiens), sequence (O75460 19-977 limits assumed): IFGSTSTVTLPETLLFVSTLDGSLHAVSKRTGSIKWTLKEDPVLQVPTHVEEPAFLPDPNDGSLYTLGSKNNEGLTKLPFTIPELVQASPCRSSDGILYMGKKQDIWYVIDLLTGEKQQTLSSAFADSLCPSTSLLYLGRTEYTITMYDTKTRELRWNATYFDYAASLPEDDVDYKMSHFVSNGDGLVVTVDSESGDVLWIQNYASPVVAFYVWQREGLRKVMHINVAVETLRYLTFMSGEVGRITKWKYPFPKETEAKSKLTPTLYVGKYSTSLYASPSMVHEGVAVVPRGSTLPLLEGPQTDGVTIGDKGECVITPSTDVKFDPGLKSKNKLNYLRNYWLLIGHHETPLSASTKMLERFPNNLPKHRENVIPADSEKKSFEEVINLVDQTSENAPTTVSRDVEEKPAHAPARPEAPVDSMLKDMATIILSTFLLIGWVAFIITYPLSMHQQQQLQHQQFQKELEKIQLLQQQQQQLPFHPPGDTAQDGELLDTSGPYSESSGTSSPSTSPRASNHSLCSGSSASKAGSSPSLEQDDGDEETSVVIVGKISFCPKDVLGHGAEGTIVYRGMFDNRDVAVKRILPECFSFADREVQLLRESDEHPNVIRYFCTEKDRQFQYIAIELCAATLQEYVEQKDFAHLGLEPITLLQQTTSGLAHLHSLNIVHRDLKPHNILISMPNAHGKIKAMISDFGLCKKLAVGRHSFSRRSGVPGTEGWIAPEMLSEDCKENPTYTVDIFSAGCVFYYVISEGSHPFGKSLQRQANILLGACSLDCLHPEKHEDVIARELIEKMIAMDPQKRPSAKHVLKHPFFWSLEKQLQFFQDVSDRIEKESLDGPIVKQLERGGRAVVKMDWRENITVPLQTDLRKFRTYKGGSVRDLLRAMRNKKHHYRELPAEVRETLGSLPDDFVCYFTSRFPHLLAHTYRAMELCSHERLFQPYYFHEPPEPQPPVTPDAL
Serine/threonine-protein kinase Aurora (Homo sapiens), sequence (O14965 whole entry, looked up): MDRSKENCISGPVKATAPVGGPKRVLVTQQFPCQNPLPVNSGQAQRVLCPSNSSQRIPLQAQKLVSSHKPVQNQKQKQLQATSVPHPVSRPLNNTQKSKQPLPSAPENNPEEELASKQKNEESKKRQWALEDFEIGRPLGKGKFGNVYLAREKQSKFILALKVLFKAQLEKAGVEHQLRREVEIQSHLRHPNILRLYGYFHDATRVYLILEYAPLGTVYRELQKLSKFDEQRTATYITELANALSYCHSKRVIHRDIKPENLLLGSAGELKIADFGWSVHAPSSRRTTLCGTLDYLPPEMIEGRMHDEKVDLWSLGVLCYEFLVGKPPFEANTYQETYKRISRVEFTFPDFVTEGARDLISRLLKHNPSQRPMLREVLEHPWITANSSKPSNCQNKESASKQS
Serine/threonine-protein kinase Aurora (Homo sapiens), sequence (Q96GD4 whole entry, looked up): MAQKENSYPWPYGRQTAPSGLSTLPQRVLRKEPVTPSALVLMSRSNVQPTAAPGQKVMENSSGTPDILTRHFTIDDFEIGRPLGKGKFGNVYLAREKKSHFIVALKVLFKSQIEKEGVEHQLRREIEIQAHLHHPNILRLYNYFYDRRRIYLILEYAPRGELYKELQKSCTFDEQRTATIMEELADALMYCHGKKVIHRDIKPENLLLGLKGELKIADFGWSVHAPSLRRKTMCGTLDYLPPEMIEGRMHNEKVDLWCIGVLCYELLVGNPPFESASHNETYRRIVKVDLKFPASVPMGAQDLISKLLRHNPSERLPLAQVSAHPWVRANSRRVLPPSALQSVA
Serine/threonine-protein kinase Aurora (Homo sapiens), sequence (Q9UQB9 whole entry, looked up): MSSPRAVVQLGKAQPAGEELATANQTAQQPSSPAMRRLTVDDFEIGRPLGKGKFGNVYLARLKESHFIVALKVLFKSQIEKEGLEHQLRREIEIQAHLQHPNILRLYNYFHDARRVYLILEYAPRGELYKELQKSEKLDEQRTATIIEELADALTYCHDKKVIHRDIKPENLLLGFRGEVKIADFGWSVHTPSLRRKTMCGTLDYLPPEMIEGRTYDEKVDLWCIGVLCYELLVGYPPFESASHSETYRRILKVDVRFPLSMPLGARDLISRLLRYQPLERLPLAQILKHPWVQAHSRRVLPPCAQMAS
Mast/stem cell growth factor receptor Kit (Homo sapiens), P10721 [V559D,T670I], sequence (P10721 whole entry V559D/T670I): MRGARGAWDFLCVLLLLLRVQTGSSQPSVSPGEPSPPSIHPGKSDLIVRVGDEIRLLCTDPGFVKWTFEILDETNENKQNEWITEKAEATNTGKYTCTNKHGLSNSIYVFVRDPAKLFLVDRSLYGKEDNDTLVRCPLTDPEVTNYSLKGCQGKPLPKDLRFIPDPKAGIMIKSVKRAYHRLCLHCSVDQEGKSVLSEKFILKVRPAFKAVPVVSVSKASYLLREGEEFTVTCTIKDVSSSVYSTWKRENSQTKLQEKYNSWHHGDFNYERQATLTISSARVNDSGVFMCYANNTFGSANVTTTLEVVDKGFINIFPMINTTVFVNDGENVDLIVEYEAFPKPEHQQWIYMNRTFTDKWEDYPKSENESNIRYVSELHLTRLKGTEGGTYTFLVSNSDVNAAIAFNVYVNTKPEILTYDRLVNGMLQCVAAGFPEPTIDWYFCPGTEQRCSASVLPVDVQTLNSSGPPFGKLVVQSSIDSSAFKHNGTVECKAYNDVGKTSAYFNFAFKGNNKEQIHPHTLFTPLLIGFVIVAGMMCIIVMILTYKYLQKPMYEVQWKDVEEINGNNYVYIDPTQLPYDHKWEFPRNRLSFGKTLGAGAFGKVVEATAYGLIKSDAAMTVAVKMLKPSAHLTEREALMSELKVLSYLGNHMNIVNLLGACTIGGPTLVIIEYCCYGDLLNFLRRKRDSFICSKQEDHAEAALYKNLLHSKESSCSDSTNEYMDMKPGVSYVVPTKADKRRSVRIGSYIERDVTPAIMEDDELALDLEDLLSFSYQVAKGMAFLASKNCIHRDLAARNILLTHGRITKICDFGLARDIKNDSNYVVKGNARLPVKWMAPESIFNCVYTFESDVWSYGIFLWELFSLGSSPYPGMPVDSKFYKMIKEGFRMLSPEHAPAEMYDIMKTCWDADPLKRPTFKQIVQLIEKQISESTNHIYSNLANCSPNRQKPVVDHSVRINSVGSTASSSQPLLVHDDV

In general, inhibition refers to the relative decrease from the control value, in per cent. As to `CNc1cc(Oc2cc(C(=O)Nc3cc(N4CCN(C)CC4)cc(C(F)(F)F)c3)ccc2C)ncn1`, the inhibition was -2.5% in [1] and 0.3% in [2].
What is called residual activity is the activity still measured, relative to the control. A lower residual activity goes with little activity left. In assay [3], `CCN1CCN(Cc2ccc(NC(=O)c3ccc(C)c(/C=C/c4cnc5[nH]ccc5c4OC)c3)cc2C(F)(F)F)CC1` came in with a residual activity of 4.9%. Besides, the inhibition in assay [4] was 6.4%; in assay [6], 82%; in assay [7], 70%; in assay [8] it was 24.4%; in assay [9], 79%. In addition, the % of control in assay [5] is 4.4%.
Consider `CCN1CCN(Cc2ccc(NC(=O)c3ccc(C)c(Oc4ccnc5[nH]ccc45)c3)cc2C(F)(F)F)CC1`, for which the inhibition entry in assay [10] and in assay [13] was “inactive” throughout. The inhibition in assay [11] amounted to 14.4%; in assay [12], 4.1%.

Values taken from ChEMBL document CHEMBL5696442, “Discovery of type II inhibitors of TGFβ-activated kinase 1 (TAK1) and mitogen-activated protein kinase kinase kinase kinase 2 (MAP4K2)” (J Med Chem, 2015).
